The values that follow come from ChEMBL document CHEMBL2094269, “WEHI/Eskitis Trypanosoma b. brucei screening data”.

Data set [1] is described as follows: DNDI: Cytotoxicity against human MRC-5 lung fibroblast cells. The settings on record: IC50.
The test system of data set [2] is Trypanosoma brucei brucei. Description: microbe, parasite or virus in culture. Format: functional, organism-based, STIB 795.
Description: DNDI: Inhibition of Human African Trypanosomiasis (HAT), STIB 795, in vitro

`CC1CCN(C(c2cc(C(C)(C)C)c(O)c(C(C)(C)C)c2)c2ccccn2)CC1` (stereo unspecified): the IC50 is above 41.7 µM in data set [1] and 5700 nM in data set [2] (Trypanosoma brucei, STIB 795).

On to `Cc1c2[nH]c3ccccc3c2c2c([n+]1C)CC(C)(C)CC2`, for which the half-maximal inhibitory concentration (IC50) in data set [1] was above 41.7 µM; in data set [2] (Trypanosoma brucei, STIB 795), 8670 nM.

`CN(C)S(=O)(=O)c1ccc(C(=O)Nc2nnc(-c3ccc(F)cc3)o2)cc1`: the IC50 is above 41.7 µM in data set [1] and 4940 nM in data set [2] (Trypanosoma brucei, STIB 795).

With `COc1ccc(C(NC(=O)CC(C)C)c2ccc3cccnc3c2O)cc1OC` (stereo unspecified), the IC50 amounted to 0.685 µM in data set [1] and 600 nM in data set [2] (Trypanosoma brucei, STIB 795).

In the case of `CC(C)(C)c1ccc(/C(=N\NC(=N)N)c2ccc(Cl)cc2)cc1`, the IC50 is above 20.8 µM in data set [1] and 1100 nM in data set [2] (Trypanosoma brucei, STIB 795).

`COc1ccc(C)cc1/N=N/c1ccc(O)c2nc(/C=N/O)ccc12`: the IC50 is above 20.8 µM in data set [1] and 2370 nM in data set [2] (Trypanosoma brucei, STIB 795).

In the case of `Cc1conc1NC(c1cccs1)c1ccc2cccnc2c1O` (stereo unspecified), the half-maximal inhibitory concentration (IC50) in data set [1] was above 20.8 µM; in data set [2] (Trypanosoma brucei, STIB 795), 5740 nM.

As for `CCn1c(Cc2nc3ccccc3n2CC)nc2ccccc21`, the IC50 in data set [1] was above 41.7 µM; in data set [2] (Trypanosoma brucei, STIB 795), 3870 nM.

Consider `CC(C)(C)C1C/C(=C\c2cccnc2)C(=O)/C(=C/c2cccnc2)C1` (stereo unspecified), for which the IC50 in data set [1] was above 4.17 µM; in data set [2] (Trypanosoma brucei, STIB 795) it was 98 nM.

As for `CCN1/C(=C/C=C/c2sc3c(C)cccc3[n+]2CC)Sc2c(C)cccc21`, the IC50 in data set [1] is above 20.8 µM; in data set [2] (Trypanosoma brucei, STIB 795) it was 501 nM.

`CC(CON1C(N)=NC(N)=NC1(C)C)Cc1cc(Cl)ccc1Cl` (stereo unspecified): the IC50 was above 20.8 µM in data set [1] and 4670 nM in data set [2] (Trypanosoma brucei, STIB 795).

Take `Nc1ccc2ccc3cccnc3c2n1`: the IC50 in data set [1] is above 4.17 µM; in data set [2] (Trypanosoma brucei, STIB 795), 2400 nM.

As for `O=C(NNC(=O)c1ccccn1)c1cccc(Br)c1`, the IC50 in data set [1] is above 4.17 µM; in data set [2] (Trypanosoma brucei, STIB 795) it was 1740 nM.

On to `Oc1c(C(c2ccccc2Cl)N2CCOCC2)ccc2cccnc12` (stereo unspecified), for which the IC50 in data set [1] was above 20.8 µM; in data set [2] (Trypanosoma brucei, STIB 795), 5590 nM.

Turning to `CC1CCc2nc(SC3CC(=O)C4OCC3O4)nc(C(F)(F)F)c2C1` (stereo unspecified), the IC50 in data set [1] is above 20.8 µM; in data set [2] (Trypanosoma brucei, STIB 795), 2620 nM.

`CCOc1ccc2nc3cc(NCc4ccccc4OC)ccc3c(N)c2c1`: the IC50 in data set [1] is above 20.8 µM; in data set [2] (Trypanosoma brucei, STIB 795) it was 4580 nM.

On to `CC(O)CN1C(=O)c2ccc3c4c(ccc(c24)C1=O)C(=O)N(CC(C)O)C3=O` (stereo unspecified), for which the IC50 was above 41.7 µM in data set [1] and 5050 nM in data set [2] (Trypanosoma brucei, STIB 795).

Take `Cc1ccc(/N=N/c2ccc(O)c3ncccc23)cc1C`: the IC50 is above 20.8 µM in data set [1] and 4920 nM in data set [2] (Trypanosoma brucei, STIB 795).

Take `CCCCNCc1[nH]c2ccccc2c1Cl`: the IC50 is above 20.8 µM in data set [1] and 3100 nM in data set [2] (Trypanosoma brucei, STIB 795).

As for `O=C(O)c1ccc(NNc2c3ccccc3nc3ccccc23)cc1`, the IC50 was above 41.7 µM in data set [1] and 1020 nM in data set [2] (Trypanosoma brucei, STIB 795).

`CCN1C=CC(=Cc2ccc3cc(C)ccc3[n+]2C)C=C1`: the IC50 in data set [1] was above 20.8 µM; in data set [2] (Trypanosoma brucei, STIB 795) it was 538 nM.

Take `CCOc1cc(-n2ncc(Cl)c(Cl)c2=O)nc(SC)n1`: the IC50 in data set [1] was above 4.17 µM; in data set [2] (Trypanosoma brucei, STIB 795), 1510 nM.

In the case of `O=S1(=O)Nc2c(ccc3cccnc23)-c2ccccc21`, the IC50 in data set [1] is above 20.8 µM; in data set [2] (Trypanosoma brucei, STIB 795) it was 2870 nM.

Regarding `c1ccc(Sc2cccc3ccccc23)c(CNC2=NCCN2)c1`, the IC50 in data set [1] was above 20.8 µM; in data set [2] (Trypanosoma brucei, STIB 795), 428 nM.

`CN(C)c1cc[n+](Cc2c(Cl)cccc2Cl)cc1`: the IC50 in data set [1] is above 41.7 µM; in data set [2] (Trypanosoma brucei, STIB 795), at most 44 nM.

For `CC1=CC(C)(C)N=C(Nc2nc(C)c3cc(C)cc(C)c3n2)N1`, the IC50 was found to be 5.93 µM in data set [1] and 3730 nM in data set [2] (Trypanosoma brucei, STIB 795).

Consider `COc1cc(OC)c2nc(C)c3c(c2c1)CNC3`, for which the IC50 was 7.02 µM in data set [1] and 2500 nM in data set [2] (Trypanosoma brucei, STIB 795).

As to `N=C(N)N/N=C(/C=C(\c1ccc(Cl)cc1)n1ccnc1)c1ccc(Cl)cc1`, the IC50 in data set [1] is above 10.4 µM; in data set [2] (Trypanosoma brucei, STIB 795) it was 3000 nM.

Take `Cc1ccccc1Cn1c(=N)n(CC(O)c2ccco2)c2ccccc21` (stereo unspecified): the IC50 in data set [1] was above 20.8 µM; in data set [2] (Trypanosoma brucei, STIB 795) it was 5250 nM.

As for `COc1ccc(/C(N)=N/OC(=O)c2cc(OC)c(OC)cc2OC)cc1OC`, the IC50 in data set [1] is above 41.7 µM; in data set [2] (Trypanosoma brucei, STIB 795), 798 nM.

In the case of `COc1ccc(C(=N)NOC(=O)c2ccco2)cc1`, the IC50 in data set [1] was above 20.8 µM; in data set [2] (Trypanosoma brucei, STIB 795), 3690 nM.

Take `C=CCn1c(-c2ccccc2Cl)nn(C2CCC3OCC2O3)c1=S` (stereo unspecified): the IC50 in data set [1] was above 20.8 µM; in data set [2] (Trypanosoma brucei, STIB 795), 3790 nM.

In the case of `CC1(C)N=C(N)N=C(N)N1OCc1ccc(F)c(-c2ccc(F)cc2)c1`, the IC50 was above 2.08 µM in data set [1] and at most 1450 nM in data set [2] (Trypanosoma brucei, STIB 795).

For `O=C(Nc1cccc(Cl)c1)O/N=C1\CC2CCC1C2` (stereo unspecified), the concentration for half-maximal inhibition (IC50) in data set [1] is above 20.8 µM; in data set [2] (Trypanosoma brucei, STIB 795), 857 nM.

Take `COc1cc(C(=O)Nc2nc(-c3ccccn3)cs2)cc(OC)c1OC`: the IC50 in data set [1] was above 41.7 µM; in data set [2] (Trypanosoma brucei, STIB 795) it was 4600 nM.

Regarding `CC(C)(C)n1ncc(SC/C(=N\O)c2ccccc2)c(Cl)c1=O`, the half-maximal inhibitory concentration (IC50) was above 41.7 µM in data set [1] and 2370 nM in data set [2] (Trypanosoma brucei, STIB 795).

In the case of `C=CCc1cccc(/C=N/NC(=O)c2cc(-c3ccc4ccccc4c3)n[nH]2)c1O`, the IC50 in data set [1] was above 41.7 µM; in data set [2] (Trypanosoma brucei, STIB 795), 3000 nM.

In the case of `Cc1cc(C)c2nc(C)cc(Nc3ccc4c(c3)OCCO4)c2c1`, the IC50 in data set [1] was above 41.7 µM; in data set [2] (Trypanosoma brucei, STIB 795) it was 3910 nM.

Turning to `COc1ccc(NCC2COc3ccccc3C2=O)cc1` (stereo unspecified), the IC50 in data set [1] was above 41.7 µM; in data set [2] (Trypanosoma brucei, STIB 795), 4910 nM.

On to `CCOC(=O)c1ccc(CCCCCON2C(N)=NC(N)=NC2(C)C)cc1`, for which the IC50 in data set [1] is above 1.04 µM; in data set [2] (Trypanosoma brucei, STIB 795), 1050 nM.

Consider `CCOC(=O)c1nc[nH]c1/N=N/c1ccc(O)c2ccccc12`, for which the IC50 stood at 3.83 µM in data set [1] and 927 nM in data set [2] (Trypanosoma brucei, STIB 795).

As to `CCCc1c(CC)c(=N)c2ccccc2n1C`, the IC50 in data set [1] was above 41.7 µM; in data set [2] (Trypanosoma brucei, STIB 795) it was 4550 nM.

For the molecule `C(=C\c1ccc(OC2CN3CCC2CC3)cc1)/c1ccccc1` (stereo unspecified), the IC50 was above 41.7 µM in data set [1] and 5310 nM in data set [2] (Trypanosoma brucei, STIB 795).

In the case of `CC(=O)NC(c1ccccc1C)c1ccc2cccnc2c1O` (stereo unspecified), the 50% inhibitory concentration (IC50) in data set [1] is above 1.04 µM; in data set [2] (Trypanosoma brucei, STIB 795), 655 nM.

As for `CCCCOc1ccc(CSC(=N)N)cc1`, the IC50 was above 20.8 µM in data set [1] and 5480 nM in data set [2] (Trypanosoma brucei, STIB 795).

For `CN(CCCNC(=O)c1n[nH]c2c1COc1ccccc1-2)C1CCCCC1`, the IC50 in data set [1] is above 20.8 µM; in data set [2] (Trypanosoma brucei, STIB 795), 5060 nM.

Take `Cc1nn2c3c(nnc2c1-c1ccccc1)C(=O)CCC3`: the IC50 in data set [1] turned out to be 18.1 µM; in data set [2] (Trypanosoma brucei, STIB 795) it was 697 nM.

For the molecule `O=C(CSc1cccc2cccnc12)c1ccc(Cl)cc1Cl`, the IC50 in data set [1] is above 41.7 µM; in data set [2] (Trypanosoma brucei, STIB 795), 1400 nM.

For the molecule `COc1ccc(C(=O)O/N=C(\N)c2ccccc2Cl)cc1OC`, the IC50 in data set [1] is above 20.8 µM; in data set [2] (Trypanosoma brucei, STIB 795) it was 686 nM.

Consider `CCc1ccc(NS(=O)(=O)c2cc(-c3cc(C)n[nH]3)ccc2C)cc1`, for which the half-inhibitory concentration (IC50) in data set [1] was above 4.17 µM; in data set [2] (Trypanosoma brucei, STIB 795) it was 1230 nM.

On to `NC1c2ccccc2CC1Cc1ccc(Cl)cc1Cl` (stereo unspecified), for which the IC50 in data set [1] was above 20.8 µM; in data set [2] (Trypanosoma brucei, STIB 795), 5230 nM.

`CCCCC(=O)NC(c1cccs1)c1cc(Cl)c2cccnc2c1O` (stereo unspecified): the IC50 is above 41.7 µM in data set [1] and 666 nM in data set [2] (Trypanosoma brucei, STIB 795).

Turning to `CCN(CC)CCn1c(=N)n(CC(=O)c2ccc(C)cc2)c2ccccc21`, the IC50 is above 41.7 µM in data set [1]; 4970 nM in data set [2]; 4720 nM in data set [2] (Trypanosoma brucei, STIB 795).

Consider `CN1CCN(Cc2cc(Br)c3cccnc3c2O)CC1`, for which the IC50 in data set [1] is above 4.17 µM; in data set [2] (Trypanosoma brucei, STIB 795) it was 5070 nM.

In the case of `NCCc1c[nH]c2ccc(C3CCCCC3)cc12`, the IC50 is above 20.8 µM in data set [1] and 1280 nM in data set [2] (Trypanosoma brucei, STIB 795).

Broadly, the IC50 is the concentration that inhibits the measured activity by half.
